According to patent US20210220450A1, “TREATMENT OF AN IOP CONDITION” (The Research Foundation for The State University of New York, priority 2013, published 2021):

What was measured:
[1] = test system: MMP-1, MMP-2, MMP-9, MMP-13, PLAT, PAI-1 mRNA; assay: qRT-PCR gene expression in sheep TM and ciliary processes after tPA (Examples 6, 7); type: in vivo
From the text: Methods. Tissue Collection and Isolation of RNA. After animals were euthanized, eyes were immediately enucleated. Eyes were then opened anterior to the equator using a razor blade. The lens was removed from the anterior part, and the tissue was immersed in RNA stabilizing agent (RNAlater; Ambion, Carlsbad, Calif.) and placed […] for transportation to the United States. Upon arrival in the United States, TM and ciliary processes (CP) were dissected on ice in the presence of RNA stabilizing agent as described previously. Dissected tissue was homogenized, and total RNA was extracted using TRIzol reagent (Gibco, Carlsbad, Calif.). Briefly, the tissue was homogenized in TRIzol, and chloroform was added to separate proteins from RNA. After centrifugation, the RNA-containing supernatant was aspirated. The RNA was precipitated with isopropanol, washed with 75% ethanol, treated with DNase, and column purified using a commercial kit (RNAeasy Mini Kit; Qiagen, Valencia, Calif.) in accordance with the manufacturer's instructions. RNA concentrations were determined with a spectrophotometer (Nanodrop; Thermo Scientific, Wilmington, Del.) and the 260:280-nm absorbance ratio was calculated to determine RNA purity.
Quantitative Real-Time PCR (qRT-PCR) The RNA samples were reverse transcribed with random hexamers to cDNA using a reverse transcription kit (Quantitect; Qiagen) in accordance with the manufacturer's instructions. Quantitative RT-PCR was performed using a commercial kit (SYBR Green RT-PCR Reagents Kit; Applied Biosystems, Carlsbad, Calif.) in an ABI PRISM 7900HT sequence detector (Applied Biosystems). […] Plasminogen activator inhibitor 1 (PAI-1) mRNA expression was measured in both TM and ciliary processes tissues. Relative quantification of gene expression was performed using the standard curve method. […] The DCt was calculated as the difference in Ct values derived from the target gene and the 18S gene. The DDCt was calculated as DCt of the normalized assayed genes in the treated samples minus DCt of normalized assayed genes in the naïve control samples. […]

[2] = test system: sheep of the Corriedale breed; assay: Steroid-induced IOP elevation in sheep, intravitreal tPA (Examples 3, 4); type: in vivo
Experimental: Protocol 1. 8 sheep of the Corriedale breed were treated with prednisolone acetate three times a day in both eyes, leading to elevated IOP. After one week, the animals received intravitreal injections of human recombinant tPA (100, 200, 500 and 1000 μg, two animals each) dissolved in balanced salt solution (BSS) in one eye. IOP was monitored for 19 more days while the animals continued to receive treatment with prednisolone. Periodic slit lamp examination was also performed.
Protocol 2. In a second set of experiments, arginine was added to the BSS vehicle administered to the left eye to control for the relatively high concentration of the amino acid in the commercially available tPA lyophilisate. In these experiments all right eyes received 0.1 mg tPA, which concomitantly delivered 4.23 mg of arginine into the vitreous, and the left eye received this same amount of arginine, absent the tPA. On Day 1, prednisolone treatments were also begun simultaneously on both eyes.
Methods. In this experiment, the inventor sought to detect the effects of tPA treatment on prevention of steroid-induced IOP elevation. In 4 sheep tPA was injected in one eye (100 μg) and they were started on prednisolone acetate three times a day in both eyes. Animals were monitored for 11 days on continuous treatment.

MMP-2, MMP-9, MMP-13 [3] = assay: MMP expression in PA treated HTM cells (Examples 17, 18); type: cell-based; details: PA treated HTM cells
Mmp-2, Mmp-9, Mmp-13 [4] = assay: Mmp expression in TA and protein treated C57BL/6J eyes (Example 13); type: in vivo, mouse; details: vs BSA treated controls
Mmp-9KO mice = assay: Outflow facility in protein treated Mmp-9KO mouse eyes (Example 16); type: in vivo; details: intravitreal protein, p>0.05
Experimental: PlatKO and Mmp-9KO mice were also not given steroids prior to protein injections (FIG. 10c). Within each cohort, animals were divided into two groups:
1) Animals that received unilateral intravitreal injection with 2 μl of tPA (5 μg/μl, Actilyse; Boehringer Ingelheim, Ingelheim am Rhein, Germany) while the contralateral eye received 2 μl of BSA (5 μg/μl; Gold Biotechnology, St Louis, Mo., USA), and 2) Animals that received unilateral intravitreal injections with 2 μl of non-enzymatically active tPA (NE-tPA/S478A-tPA) (5 μg/μl; Innovative Research, Novi, Mich., USA) while the contralateral eye received 2 μl of BSA. Animals were euthanized two days after intravitreal injection.
Outflow facility determination: Mouse eyes were enucleated immediately after euthanasia. Outflow facility was determined using a constant pressure method, as previously described. Pressure was raised in steps of 4 cmH2O, from 8 cmH2O (5.88 mmHg) to 32 cmH2O (23.54 mmHg) by increasing the height of a column of fluid of BSS. Steady state was initially achieved after 10 minutes. […] Flow was constantly measured via a microfluidic flow sensor (0.07-1.5 uL/min, MFS1; Elveflow, Paris, France). […] Any eyes that developed visible leaks during outflow facility determination, or that had pressure-flow correlations with R^2<0.9, were excluded from analysis but were used for RNA quantification.

Substance: tissue plasminogen activator [tPA]
- PLAT expression ([1]; sheep TM (FIG. 7)): down-regulates
- expression of MMP1 and MMP9 ([1]; sheep TM (FIG. 7)): up-regulates
- expression of MMP1, MMP2, MMP9, MMP13 and PAI-1 ([1]; sheep trabecular meshwork and ciliary processes): up-regulates
- prevention of steroid-induced IOP elevation ([2]; 100 μg in one eye, concurrent with prednisolone, 11 days): prevented IOP elevation
- ocular observations ([2]; intravitreal tPA, prednisolone-treated sheep, some eyes): Transient injection and corneal clouding
- IOP after tPA ([2]; within 24 h, all intravitreal doses tested (100-1000 μg), prednisolone continued): 14.1(±1.1) mmHg
- MMP-2 expression (MMP-2, MMP-9, MMP-13 [3]; between treatments): not significantly different
- expression (FIG. 17C, MMP-9) (MMP-2, MMP-9, MMP-13 [3]; vs PA+BSA): significant upregulation
- Mmp-2, Mmp-9 and Mmp-13 expression (Mmp-2, Mmp-9, Mmp-13 [4]): significant upregulation
- effect on outflow facility (Mmp-9KO mice): did not increase
